Mutagenic call data for five compounds are collected here from PubChem BioAssay AID1259407 (Chemical Carcinogenesis Research Information System (CCRIS), 2018).

For the data set, the system named is CCRIS mutagenicity, Ames/micronucleus/aberration tests. Description: CCRIS mutagenicity studies.
[1] abbreviates: Test System: AMES SALMONELLA TYPHIMURIUM, Strain/Indicator: TA98, Metabolic Activation: NONE, Method: STANDARD PLATE.
[2] abbreviates: Test System: AMES SALMONELLA TYPHIMURIUM, Strain/Indicator: TA100, Metabolic Activation: NONE, Method: STANDARD PLATE.
The mark [3] stands for this setting: Test System: AMES SALMONELLA TYPHIMURIUM, Strain/Indicator: TA1535, Metabolic Activation: NONE, Method: STANDARD PLATE.
Where [4] appears, read: Test System: AMES SALMONELLA TYPHIMURIUM, Strain/Indicator: TA1537, Metabolic Activation: NONE, Method: STANDARD PLATE.

Molecules are shown by their SMILES. Active and inactive are the calls of the source. The rule behind the calls is not given here.

In the case of `CN(C)CCCNc1c2ccccc2nc2c([N+](=O)[O-])cccc12`, the mutagenic call was “active; positive” (Test System: AMES SALMONELLA TYPHIMURIUM, Strain/Indicator: TA98(1,8-DNP6), Metabolic Activation: NONE, Method: STANDARD PLATE); “active; positive” (Test System: AMES SALMONELLA TYPHIMURIUM, Strain/Indicator: TA98(1,8-DNP6), Metabolic Activation: RAT, LIVER, S-9, Method: STANDARD PLATE); “active; positive” (Test System: AMES SALMONELLA TYPHIMURIUM, Strain/Indicator: TA98(NR), Metabolic Activation: NONE, Method: STANDARD PLATE); “active; positive” (Test System: AMES SALMONELLA TYPHIMURIUM, Strain/Indicator: TA98(NR), Metabolic Activation: RAT, LIVER, S-9, Method: STANDARD PLATE); “active; positive” under setting [1]; “active; positive” (Test System: AMES SALMONELLA TYPHIMURIUM, Strain/Indicator: TA98, Metabolic Activation: RAT, LIVER, S-9, Method: STANDARD PLATE). In addition, the mutagenic call was “active; positive” under setting [2]; “inactive; negative” under setting [3]; “active; positive” under setting [4]; “active; positive” (Test System: AMES SALMONELLA TYPHIMURIUM, Strain/Indicator: TA1537 PKM101, Metabolic Activation: NONE, Method: STANDARD PLATE); “active; positive” (Test System: AMES SALMONELLA TYPHIMURIUM, Strain/Indicator: TA1538, Metabolic Activation: NONE, Method: STANDARD PLATE); “active; positive” (Test System: CHINESE HAMSTER V-79, Strain/Indicator: V-79/6-THIOGUANINE, Metabolic Activation: NONE, Method: STANDARD PLATE). In addition, the mutagenic call (Test System: CHINESE HAMSTER V-79, Strain/Indicator: V-79/OUABAIN, Metabolic Activation: NONE, Method: STANDARD PLATE) was “inactive; negative”; the mutagenic call (Test System: Escherichia coli, Strain/Indicator: CC107 (G6 to G7 frameshifts), Metabolic Activation: None, Method: Modified preincubation) is “active; positive”; the mutagenic call (Test System: Escherichia coli, Strain/Indicator: CC108 (G6 to G5 frameshifts), Metabolic Activation: None, Method: Modified preincubation) is “active; positive”; the mutagenic call (Test System: Escherichia coli, Strain/Indicator: CC109 (CG5 to CG4 frameshifts), Metabolic Activation: None, Method: Modified preincubation) was “inactive; negative, investigators report as positive based on revertant frequency correcte”; the mutagenic call (Test System: Escherichia coli, Strain/Indicator: CC111 (A7 to A6 frameshifts), Metabolic Activation: None, Method: Modified preincubation) was “inactive; negative”.

With `N=C(N)S(=O)O`, the mutagenic call is, setting by setting: (Test System: AMES SALMONELLA TYPHIMURIUM, Strain/Indicator: TA98, Metabolic Activation: NONE, Method: PREINCUBATION) “inactive; negative”; (Test System: AMES SALMONELLA TYPHIMURIUM, Strain/Indicator: TA98, Metabolic Activation: RAT LIVER S-9, PHENOBARBITAL AND BETA-NAPHTHOFLAVONE, Method: PREINCUBATION) “inactive; negative”; (Test System: AMES SALMONELLA TYPHIMURIUM, Strain/Indicator: TA100, Metabolic Activation: NONE, Method: PREINCUBATION) “inactive; negative”; (Test System: AMES SALMONELLA TYPHIMURIUM, Strain/Indicator: TA100, Metabolic Activation: RAT LIVER S-9, PHENOBARBITAL AND BETA-NAPHTHOFLAVONE, Method: PREINCUBATION) “inactive; negative”; (Test System: AMES SALMONELLA TYPHIMURIUM, Strain/Indicator: TA1535, Metabolic Activation: NONE, Method: PREINCUBATION) “active; positive”; (Test System: AMES SALMONELLA TYPHIMURIUM, Strain/Indicator: TA1535, Metabolic Activation: RAT LIVER S-9, PHENOBARBITAL AND BETA-NAPHTHOFLAVONE, Method: PREINCUBATION) “active; positive”. In addition, the mutagenic call was “inactive; negative” (Test System: AMES SALMONELLA TYPHIMURIUM, Strain/Indicator: TA1537, Metabolic Activation: NONE, Method: PREINCUBATION); “inactive; negative” (Test System: AMES SALMONELLA TYPHIMURIUM, Strain/Indicator: TA1537, Metabolic Activation: RAT LIVER S-9, PHENOBARBITAL AND BETA-NAPHTHOFLAVONE, Method: PREINCUBATION); “inactive; negative” (Test System: E.COLI, Strain/Indicator: WP2UVRA\PKM101, Metabolic Activation: NONE, Method: PREINCUBATION); “inactive; negative” (Test System: E.COLI, Strain/Indicator: WP2UVRA\PKM101, Metabolic Activation: RAT LIVER S-9, PHENOBARBITAL AND BETA-NAPHTHOFLAVONE, Method: PREINCUBATION).

As for `C[C@]12CC[C@H](OC(=O)COc3ccc(N(CCCl)CCCl)cc3)C[C@@H]1CC[C@@H]1[C@@H]2CC[C@]2(C)NC(=O)CC[C@@H]12`, the mutagenic call under setting [1] was “inactive; negative”; the mutagenic call (Test System: AMES SALMONELLA TYPHIMURIUM, Strain/Indicator: TA98, Metabolic Activation: RAT, LIVER, S-9, AROCLOR 1254, Method: STANDARD PLATE) was “inactive; negative”; the mutagenic call under setting [2] is “active; positive”; the mutagenic call (Test System: AMES SALMONELLA TYPHIMURIUM, Strain/Indicator: TA100, Metabolic Activation: RAT, LIVER, S-9, AROCLOR 1254, Method: STANDARD PLATE) was “active; positive”; the mutagenic call under setting [3] is “active; positive”; the mutagenic call (Test System: AMES SALMONELLA TYPHIMURIUM, Strain/Indicator: TA1535, Metabolic Activation: RAT, LIVER, S-9, AROCLOR 1254, Method: STANDARD PLATE) was “active; positive”. The mutagenic call is “active; positive” (Test System: AMES SALMONELLA TYPHIMURIUM, Strain/Indicator: TA1535, Metabolic Activation: S-9, Method: STANDARD PLATE); “inactive; negative” under setting [4]; “inactive; negative” (Test System: AMES SALMONELLA TYPHIMURIUM, Strain/Indicator: TA1537, Metabolic Activation: RAT, LIVER, S-9, AROCLOR 1254, Method: STANDARD PLATE); “inactive; negative” (Test System: AMES SALMONELLA TYPHIMURIUM, Strain/Indicator: TA1537, Metabolic Activation: S-9, Method: STANDARD PLATE).

As to `Cn1c2ccccc2c2nn[n+]([O-])c(C(=O)OCCCl)c21`, the mutagenic call (Test System: AMES SALMONELLA TYPHIMURIUM, Strain/Indicator: TA97, Metabolic Activation: NONE, Method: STANDARD PLATE) is “active; positive”; the mutagenic call (Test System: AMES SALMONELLA TYPHIMURIUM, Strain/Indicator: TA97, Metabolic Activation: RAT, LIVER, S-9, AROCLOR 1254 (4%, 10%), Method: STANDARD PLATE) is “active; positive”; the mutagenic call under setting [1] is “active; positive”; the mutagenic call (Test System: AMES SALMONELLA TYPHIMURIUM, Strain/Indicator: TA98, Metabolic Activation: RAT, LIVER, S-9, AROCLOR 1254 (4%, 10%), Method: STANDARD PLATE) was “active; positive”; the mutagenic call under setting [2] is “inactive; negative”; the mutagenic call (Test System: AMES SALMONELLA TYPHIMURIUM, Strain/Indicator: TA100, Metabolic Activation: RAT, LIVER, S-9, AROCLOR 1254 (4%, 10%), Method: STANDARD PLATE) was “inactive; negative”. For the same compound, the mutagenic call is “inactive; negative” (Test System: AMES SALMONELLA TYPHIMURIUM, Strain/Indicator: TA102, Metabolic Activation: NONE, Method: STANDARD PLATE) and “inactive; negative” (Test System: AMES SALMONELLA TYPHIMURIUM, Strain/Indicator: TA102, Metabolic Activation: RAT, LIVER, S-9, AROCLOR 1254 (4%, 10%), Method: STANDARD PLATE).

For `Cc1ccc2cc3c(ccc4ccccc43)c3c2c1CC3O` (stereo unspecified), the mutagenic call (Test System: CHINESE HAMSTER V-79, Strain/Indicator: V-79/8-AZAGUANINE, Metabolic Activation: RAT, LIVER, S-9, AROCLOR 1254, Method: STANDARD PLATE) is “active; positive”.
